The values that follow come from US20260001893A1, “SMALL MOLECULE MODULATORS OF STAT6” (Gilead Sciences, Inc., priority 2024, published 2026).

The assay has as its system Eotaxin-3 (CCL26) release in human whole blood stimulated with IL-4. In words: Human whole blood eotaxin-3 assay (IL-4 stimulated eotaxin-3 release). The assay is classed as cell-based. Conditions: human whole blood stimulated with recombinant human IL-4, 48 h, geometric mean; for Emax: given for test compounds with <80% Emax; for EC50: inhibition of eotaxin-3 release, given for test compounds with >80% Emax. As for the experimental part: Human Whole Blood Eotaxin-3 Assay
This was a human whole blood assay using recombinant human Interleukin 4 to stimulate the blood and measuring the ability of the test compounds to inhibit eotaxin-3 release. The biological activities of the test compounds have been tested in human whole blood stimulated with IL-4 measuring Eotaxin-3 release. The test compounds were added to 384 well clear flat-bottom plate in a 4-fold serial dilution in triplicates using a liquid handler. Human whole blood stabilized in lithium-heparin tubes was added in a volume of 65 μL per well, resulting in a final DMSO concentration of 0.5%. The plate is incubated for 2 h at 37° C. under 5% CO2/95% air. Subsequently, 5 μL of recombinant human IL-4 (R&D Systems, cat #204-ILB) was added to the wells to a final concentration of […]. The plate was incubated for 48 h at 37° C. under 5% CO2/95% air. The plate was spun down for 10 minutes at 500×g and 20 μL supernatant was harvested and transferred to a 384 well v-bottom plate using a liquid handler and stored at −20° C. until further analysis. 10 μL supernatant was used to measure the level of Eotaxin-3 (CCL26) using Human Eotaxin-3 MSD kit from Mesocsale (Cat #K251UEK-4). The assay was performed according to the manufacture instructions.
The data from the human whole blood eotaxin-3 assay is shown below for Examples 1ab3, 1ab6, 1d23, and 1d4 (where the effect in % is plotted against the test concentration in M on a log-scale).

A value given as a limit tells only on which side of the number the result lay.

A word on the Emax: it is the size of the effect at its maximum, as opposed to the concentration needed. Broadly, the EC50 is the concentration giving half of the maximal effect.

Turning to `CNc1ccn(-c2ccnc3c2cc(CN2CC[C@@H](c4ccc(C(=O)N(C)C)cc4)C[C@@H]2C)n3C)c(=O)c1` (single isomer, unassigned) [Example 1d40], the Emax (Homo sapiens, 48 h) is below 20%.

For the compound `CNc1ccn(-c2ccnc3c2cc(CN2CC[C@@H](c4ccc(C(=O)N(C)C)cc4)C[C@H]2C)n3C)c(=O)c1` (single isomer, unassigned) [Example 1d42], the EC50 (Homo sapiens, 48 h) was determined as 150 nM.

Consider `CNc1ccn(-c2ccnc3c2cc(CN2CCC(c4ccc(C(=O)N(C)C)cc4)C[C@@H]2C)n3C)c(=O)c1` (single isomer, unassigned) [Example 1d43], for which, under “Homo sapiens, 48 h”, the EC50 turned out to be 21.9 nM.

As to `C[C@H](c1cc2c(-n3ccc(N)c(F)c3=O)ccnc2n1C)N1CC=C(c2ccc(C(=O)N(C)C)cn2)CC1` (single isomer, unassigned) [Example 1m76], the Emax (Homo sapiens, 48 h) was below 20%.

Regarding `C[C@@H](c1cc2c(-n3ccc(N)c(F)c3=O)ccnc2n1C)N1CC=C(c2ccc(C(=O)N(C)C)cn2)CC1` (single isomer, unassigned) [Example 1m77], the EC50 (Homo sapiens, 48 h) turned out to be 524 nM.

On to `CNc1ccn(-c2ccnc3c2cc([C@H](C)N2CC=C(c4c(C)cc(C(=O)N(C)C)nc4C)CC2)n3C)c(=O)c1` (single isomer, unassigned) [Example 1m99], for which the maximal effect (Emax) (Homo sapiens, 48 h) was below 20%.

On to `CNc1ccn(-c2ccnc3c2cc([C@@H](C)N2CC=C(c4c(C)cc(C(=O)N(C)C)nc4C)CC2)n3C)c(=O)c1` (single isomer, unassigned) [Example 1m100], for which the concentration for a half-maximal effect (EC50) (Homo sapiens, 48 h) turned out to be 440 nM.

As to `CNc1ccn(-c2ccnc3c2cc([C@@H](C)N2CC=C(c4c(C)cc(C(=O)N(C)C)cc4F)CC2)n3C)c(=O)c1` (single isomer, unassigned) [Example 1m105], the concentration for a half-maximal effect (EC50) (Homo sapiens, 48 h) is 80.6 nM.

As to `Cc1cc(C(=O)N(C)C)cc(F)c1C1CCN([C@H](C)c2cc3c(-n4ccc5c(c4=O)CCN5)ccnc3n2C)CC1` (single isomer, unassigned) [Example 1m120], the Emax (Homo sapiens, 48 h) lay in the range of 40 to 50%.

As to `Cc1cc(C(=O)N(C)C)cc(F)c1C1CCN([C@@H](C)c2cc3c(-n4ccc5c(c4=O)CCN5)ccnc3n2C)CC1` (single isomer, unassigned) [Example 1m121], the EC50 (Homo sapiens, 48 h) amounted to 16.4 nM.

On to `CN(C)C(=O)c1cc(F)c(C2=CCN(Cc3cc4c(-n5ccc6c(c5=O)CCN6)ccnc4n3C)CC2)cc1C1CC1` (single isomer, unassigned) [Example 1m134, 2-cyclopropyl-5-fluoro-N,N-dimethyl-4-(1-((1-methyl-4-(4-oxo-1,2,3,4-tetrahydro-5H-pyrrolo[3,2-c]pyridin-5-yl)-1H-pyrrolo[2,3-b]pyridin-2-yl)methyl)-1,2,3,6-tetrahydropyridin-4-yl)benzamide], for which the EC50 (Homo sapiens, 48 h) was 2900 nM.

As to `CN(C)C(=O)c1cc(F)c(C2=CCN(Cc3cc4c(-n5ccc6c(c5=O)CCN6)ccnc4n3C)CC2)c(C2CC2)c1` (single isomer, unassigned) [Example 1m135, 3-cyclopropyl-5-fluoro-N,N-dimethyl-4-(1-((1-methyl-4-(4-oxo-1,2,3,4-tetrahydro-5H-pyrrolo[3,2-c]pyridin-5-yl)-1H-pyrrolo[2,3-b]pyridin-2-yl)methyl)-1,2,3,6-tetrahydropyridin-4-yl)benzamide], the EC50 (Homo sapiens, 48 h) is 12.1 nM.

As for `CNc1ccn(-c2ccnc3c2cc([C@@H](C)N2CC[C@H](c4c(C)cc(C(=O)N(C)C)cc4F)C(F)(F)C2)n3C)c(=O)c1` (single isomer, unassigned) [Example 1m141], the EC50 was 610 nM.

Consider `CNc1ccn(-c2ccnc3c2cc([C@@H](C)N2CC[C@@H](c4c(C)cc(C(=O)N(C)C)cc4F)C(F)(F)C2)n3C)c(=O)c1` (single isomer, unassigned) [Example 1m143], for which, for the setting “Homo sapiens, 48 h”, the concentration giving a half-maximal response (EC50) stood at 855 nM.

Turning to `CNc1ccn(-c2ccnc3c2cc([C@@H](C)N2CC[C@H](c4c(C)cc(C(=O)N(C)C)cc4F)C(F)(F)C2)n3C)c(=O)c1` (single isomer, unassigned) [Example 1m144], the EC50 (Homo sapiens, 48 h) is 2170 nM.

Turning to `CNc1ccn(-c2ccnc3c2cc(CN2CCC(c4ccc(C(=O)N(C)C)cc4)C[C@H]2C)n3C)c(=O)c1` (stereo in doubt) [Example 1d41, N,N-dimethyl-4-[(2R,4S)-2-methyl-1-[[1-methyl-4-[4-(methylamino)-2-oxo-1-pyridyl]pyrrolo[2,3-b]pyridin-2-yl]methyl]-4-piperidyl]benzamide], the EC50 (Homo sapiens, 48 h) is 279 nM.

On to `CNc1ccn(-c2ccnc3c2cc([C@H](C)N2CC[C@@H](c4c(C)cc(C(=O)N(C)C)cc4F)C(F)(F)C2)n3C)c(=O)c1` (stereo in doubt) [Example 1m142, 4-((S)-3,3-difluoro-1-((S)-1-(1-methyl-4-(4-(methylamino)-2-oxopyridin-1 (2H)-yl)-1H-pyrrolo[2,3-b]pyridin-2-yl)ethyl)piperidin-4-yl)-3-fluoro-N,N,5-trimethylbenzamide], for which the EC50 was 13.6 nM.

With `Cc1cc(C(=O)N(C)C)ccc1C1=CCN(Cc2cc3c(-n4ncc(N)cc4=O)ccnc3n2C)CC1` [Example 1ab5, 4-(1-((4-(4-Amino-6-oxopyridazin-1 (6H)-yl)-1-methyl-1H-pyrrolo[2,3-b]pyridin-2-yl)methyl)-1,2,3,6-tetrahydropyridin-4-yl)-N,N,3-trimethylbenzamide], the EC50 (Homo sapiens, 48 h) came to 1530 nM.

On to `[2H]C([2H])([2H])N(C(=O)c1cc(C)c(C2=CCN(Cc3cc4c(-n5ccc(N)cc5=O)ccnc4n3C)CC2)c(F)c1)C([2H])([2H])[2H]` [Example 1ad5, 4-[1-[[4-(4-Amino-2-oxo-1-pyridyl)-1-methyl-pyrrolo[2,3-b]pyridin-2-yl]methyl]-3,6-dihydro-2H-pyridin-4-yl]-3-fluoro-5-methyl-N,N-bis(trideuteriomethyl)-benzamide], for which the EC50 (Homo sapiens, 48 h) was determined as 5.21 nM.

As to `Cc1cc(C(=O)N(C)C)cc(F)c1C1=CCN(Cc2cc3c(-n4ccc(N)cc4=O)ccnc3n2C)CC1` [Example 1ad6, 4-[1-[[4-(4-Amino-2-oxo-1-pyridyl)-1-methyl-pyrrolo[2,3-b]pyridin-2-yl]methyl]-3,6-dihydro-2H-pyridin-4-yl]-3-fluoro-N,N,5-trimethyl-benzamide], the 50% effective concentration (EC50) (Homo sapiens, 48 h) amounted to 6.09 nM.

Turning to `[2H]C([2H])([2H])N(C(=O)c1cc(C)c(C2=CCN(Cc3cc4c(-n5ccc6c(c5=O)CCN6)ccnc4n3C)CC2)c(F)c1)C([2H])([2H])[2H]` [Example 1ad7, 3-Fluoro-5-methyl-N,N-bis(methyl-d3)-4-(1-((1-methyl-4-(4-oxo-1,2,3,4-tetrahydro-5H-pyrrolo[3,2-c]pyridin-5-yl)-1H-pyrrolo[2,3-b]pyridin-2-yl)methyl)-1,2,3,6-tetrahydropyridin-4-yl)benzamide], the EC50 (Homo sapiens, 48 h) came out at 6.8 nM.

With `[2H]C([2H])([2H])N(C(=O)c1cc(C)c(C2=CCN(Cc3cc4c(-n5ccc(NC)cc5=O)ccnc4n3C)CC2)c(F)c1)C([2H])([2H])[2H]` [Example 1ad8, 3-Fluoro-5-methyl-N,N-bis(methyl-d3)-4-(1-((1-methyl-4-(4-(methylamino)-2-oxopyridin-1 (2H)-yl)-1H-pyrrolo[2,3-b]pyridin-2-yl)methyl)-1,2,3,6-tetrahydropyridin-4-yl)benzamide], the EC50 (Homo sapiens, 48 h) amounted to 8.9 nM.

Take `Cc1cc(C(=O)N(C)C)cc(F)c1C1=CCN(Cc2cc3c(-n4cc(F)c(N)cc4=O)ccnc3n2C)CC1` [Example 1ad10, 4-(1-((4-(4-amino-5-fluoro-2-oxopyridin-1 (2H)-yl)-1-methyl-1H-pyrrolo[2,3-b]pyridin-2-yl)methyl)-1,2,3,6-tetrahydropyridin-4-yl)-3-fluoro-N,N,5-trimethylbenzamide]: the EC50 (Homo sapiens, 48 h) is 12.2 nM.

In the case of `[2H]C([2H])([2H])N(C(=O)c1cc(C)c(C2=CCN(Cc3cc4c(-n5cc(F)c(N)cc5=O)ccnc4n3C)CC2)c(F)c1)C([2H])([2H])[2H]` [Example 1ad11, 4-(1-((4-(4-amino-5-fluoro-2-oxopyridin-1 (2H)-yl)-1-methyl-1H-pyrrolo[2,3-b]pyridin-2-yl)methyl)-1,2,3,6-tetrahydropyridin-4-yl)-3-fluoro-5-methyl-N,N-bis(methyl-d3)benzamide], the EC50 (Homo sapiens, 48 h) came out at 11.3 nM.

As to `[2H]C([2H])([2H])N(C(=O)c1ccc(C2CCN([C@@H](C)c3cc4c(-n5ncc(N)cc5=O)ccnc4n3C)CC2)cc1)C([2H])([2H])[2H]` [Example 1af62, (S)-4-(1-(1-(4-(4-amino-6-oxopyridazin-1 (6H)-yl)-1-methyl-1H-pyrrolo[2,3-b]pyridin-2-yl)ethyl)piperidin-4-yl)-N,N-bis(methyl-d3)benzamide], the Emax (Homo sapiens, 48 h) was 20 to 30%.

Consider `[2H]C([2H])([2H])N(C(=O)c1ccc(C2=CCN(Cc3cc4c(-n5ccc6c(c5=O)CCN6)ccnc4n3C)CC2)cc1)C([2H])([2H])[2H]` [Example 1af63, N,N-Bis(methyl-d3)-4-(1-((1-methyl-4-(4-oxo-1,2,3,4-tetrahydro-5H-pyrrolo[3,2-c]pyridin-5-yl)-1H-pyrrolo[2,3-b]pyridin-2-yl)methyl)-1,2,3,6-tetrahydropyridin-4-yl)benzamide], for which the Emax (Homo sapiens, 48 h) is 30 to 40%.
